{"source": "paper PMC9629815", "about": "“MK256 is a novel CDK8 inhibitor with potent antitumor activity in AML through downregulation of the STAT pathway” (Oncotarget, 2022)", "key": {"[1]": {"tested_on": "MOLM-14 cells", "test": "Cell viability dose-response matrix of MK256 and venetoclax", "type": "cell-based", "details": "Homo sapiens, MK256 0.0 nM, 72 hrs, read-out: percentage of cell viability", "text": "Our earlier experiments showing the clearly increasing expression of BCL-2 in the MOLM-14 cell line led us to ask if there was any combinational effect between MK256 and a BCL-2 inhibitor in MOLM-14 cells. To address this question, we chose venetoclax (ABT-199), an FDA-approved BCL-2 inhibitor for AML and CLL, for the combination study. We treated MOLM-14 cells with MK256 and venetoclax at a series of concentration combinations, measured cell viability, and reported the data in a dose-response matrix (Figure 8). […] We also investigated the apoptotic effect of the combination treatment in the MOLM-14 cell line (Figure 10B).\nFigure 10 (A) Dose-response matrix of percentage of cell viability of 10,000 MOLM-14 cells after 72 hrs treatment of MK256 and venetoclax at various concentration combinations. (B) Annexin V staining of 10,000 MOLM-14 cells after 72 hrs treatment of MK256 and venetoclax(ABT199) at various concentration combinations. Status of cells are labeled in the graph at the upper left corner. (C) Tumor growth of MOLM-14 xenograft model. Groups of control; ABT199 (25 mg/kg); ABT199 (25 mg/kg) + MK256 (10 mg/kg); ABT199 25 mg/kg + MK256 (50 mg/kg) were shown in straight line, dotted line, 3 dashed line and 2 dashed line, respectively. ^*** P < 0.001. (D) Body weight percentage of MOLM-14 tumor model. […]"}, "[2]": {"tested_on": "MOLM-14 xenograft model", "test": "MOLM-14 xenograft efficacy study, combination with venetoclax", "type": "in vivo, NOD SCID mice", "details": "venetoclax 25 mg/kg alone, oral once a day, 5 days on/2 days off", "method": "In an efficacy study of the combination of MK256 and venetoclax in the MOLM-14 tumor model, we compared venetoclax 25 mg/kg, venetoclax 25 mg/kg + MK256 10 mg/kg, and venetoclax 25 mg/kg + MK256 50 mg/kg. Compounds were given orally once a day on a 5 days on/2 days off schedule.\nFemale NOD SCID mice were purchased from Charles River Laboratories (Wilmington, USA) or bred at the animal facilities of the University of California San Francisco. All animal experiments were carried out under protocols approved by the Institutional Animal Care and Use Committee of the University of California San Francisco. For MOLM-14 model, 200 ul of 1 × 10^6 cells combined with matrigel (v/v, 1:1) were injected subcutaneously in the right flank of NODSCID mice. Tumors were allowed to grow for two weeks to reach a tumor volume about 200 mm^3 before mice were randomly grouped. The animals were treated for three weeks on a 5 days on/2 days off schedule by oral gavage with MK256 (dissolved in saline) alone or in combination with Venetoclax (dissolved in 5% DMSO + 50% PEG 300 + 5% Tween 80 + ddH2O). […] In the combination study, MK256 (10 or 50 mg/kg) and was coadministered with Venetoclax (25 mg/kg) once a day. Tumor volume and body weight were monitored once every 3 days. Tumor volume was calculated as L × W^2/2, where L and W were the length and width of the tumor, respectively."}}}
{"smiles": "CC1(C)CCC(CN2CCN(c3ccc(C(=O)NS(=O)(=O)c4ccc(NCC5CCOCC5)c([N+](=O)[O-])c4)c(Oc4cnc5[nH]ccc5c4)c3)CC2)=C(c2ccc(Cl)cc2)C1", "note": "[Venetoclax, venetoclax, reference compound]", "values": [{"measurement": "viability at 0.0002 µM", "setting": "[1]; Venetoclax 0.2 nM", "result": 65, "unit": "%"}, {"measurement": "viability at 0.0014 µM", "setting": "[1]; Venetoclax 1.4 nM", "result": 45, "unit": "%"}, {"measurement": "viability at 0.0041 µM", "setting": "[1]; Venetoclax 4.1 nM", "result": 26, "unit": "%"}, {"measurement": "viability at 0.0123 µM", "setting": "[1]; Venetoclax 12.3 nM", "result": 12, "unit": "%"}, {"measurement": "viability at 0.037 µM", "setting": "[1]; Venetoclax 37 nM", "result": 8, "unit": "%"}, {"measurement": "viability at 0.1111 µM", "setting": "[1]; Venetoclax 111.1 nM", "result": 7, "unit": "%"}, {"measurement": "viability at 0.3333 µM", "setting": "[1]; Venetoclax 333.3 nM", "result": 5, "unit": "%"}, {"measurement": "viability at 1 µM", "setting": "[1]; Venetoclax 1000 nM", "result": 2, "unit": "%"}, {"measurement": "viability at 3 µM", "setting": "[1]; Venetoclax 3000 nM", "result": 0, "unit": "%"}, {"measurement": "tumor growth inhibition", "setting": "[2]", "result": 15, "unit": "%"}]}
